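1) Cells in 96-well plates. 2) Compound, 48 h, 5 concentrations. 3) Linear interpolation between surrounding doses. 4) Unreached endpoint = highest concentration. The concentration for 50% growth inhibition is given as GI50. TGI: total growth inhibition.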

What all share (test): NCI anticancer screen, dose series, 48 h
In assay [1] the test system is HCT-116 colon.
In assay [2] the test system is 786-0 renal.
Assay [3] concerns UACC-257 melanoma.
The subject of assay [4] is U251 CNS.
The test system of assay [5] is OVCAR-8 ovarian.
In assay [6] the test system is SNB-75 CNS.
For assay [7], the system named is SK-MEL-5 melanoma.
In assay [8] the test system is BT-549 breast.
Assay [9] deals with NCI-H226 lung.
The test system of assay [10] is HCC-2998 colon.

For the molecule `COc1cc2c3c(n(CCCN(CCCN(CCCn4c5c(c6ccccc6c4=O)C(=O)c4ccccc4-5)C(=O)OC(C)(C)C)C(=O)OC(C)(C)C)c(=O)c2cc1OC)-c1cc2c(cc1C3=O)OCO2`, the GI50 in assay [1], in assay [2], in [3], in assay [4], in [5] and in [6] was > 100 µM each time. Besides, the GI50 in assay [7] was > 100 µM; in assay [8] it was 34.7 µM. The TGI in assay [1], in [2], in assay [3], in assay [4], in [5] and in [6] was > 100 µM in each case. In addition, the TGI in assay [7] and in assay [8] was > 100 µM throughout.
Regarding `N#CC(C#N)=CNCCN1CCN(C=C(C#N)C#N)CC1`, the TGI in assay [1], in assay [2], in assay [3], in assay [4], in [9] and in assay [5] was > 100 µM in each case. Also, the TGI in assay [7] and in assay [8] was > 100 µM each time.
Regarding `COC(=O)c1ccc2nc(-c3cc4ccccc4n3C)n(CCCCOc3cc4c(cc3OC)C(=O)N3CCC[C@H]3C=N4)c2c1`, the GI50 in assay [1] is 0.528 µM; in assay [2], 0.789 µM; in assay [3], 1.17 µM; in [4] it was 0.632 µM; in assay [9], 1.23 µM; in [5], 0.8 µM. The GI50 in assay [6] is 0.339 µM; in [7] it was 1.21 µM; in [8], 0.284 µM. In addition, the TGI was determined as 2.61 µM in [1]; 2.46 µM in assay [2]; 3.78 µM in assay [3]; 2.08 µM in [4]; 8.04 µM in [9]; 7.25 µM in assay [5]. The TGI in assay [6] stood at 1.35 µM; in assay [7], 2.48 µM; in assay [8], 1.13 µM.
For the molecule `COC(=O)c1cc(NC(=O)c2cc(NC(=O)c3cc([N+](=O)[O-])n(C)c3)cn2C)cn1C`, the GI50 in [1] was 31.8 µM; in assay [2], > 100 µM; in assay [3], > 100 µM; in assay [4] it was 32.7 µM; in [9] it was 39.9 µM; in [10], 4.26 µM. The GI50 was > 100 µM in assay [5], 5.03 µM in [7] and 40.1 µM in [8]. Also, the TGI in assay [1] was > 100 µM; in [2] it was > 100 µM; in assay [3], > 100 µM; in [4], > 100 µM; in assay [9] it was > 100 µM; in assay [10] it was 38.2 µM. For the same molecule, the results for the TGI in [5], in [7] and in [8] were > 100 µM, 59 µM and > 100 µM, respectively.
Consider `O=C(CCCn1c2c(sc3ccccc32)c(=O)n2nnc(-c3ccccc3)c12)NCCc1cnc[nH]1`, for which the GI50 is 0.594 µM in [2]; 2.2 µM in assay [3]; 0.128 µM in [4]; 4.43 µM in [9]; 1.26 µM in [10]; 1.95 µM in [6]. The GI50 is 1.84 µM in assay [7] and 6.9 µM in assay [8]. Also, the TGI in assay [2] worked out at 1.79 µM; in assay [3], 4.39 µM; in [4], 1.75 µM; in [9] it was 14.1 µM; in assay [10], 3.41 µM; in assay [5] it was 2.99 µM. For the same molecule, the TGI is 3.51 µM in assay [6], 11.4 µM in assay [7] and 18.2 µM in assay [8].
In the case of `O=C1Nc2ccccc2/C1=C\c1c(-c2ccccc2)nc2sccn12`, the GI50 in assay [1] is 1.7 µM; in assay [2], 2.39 µM; in assay [3], 14.9 µM; in [4], 2.25 µM; in assay [9], 4.27 µM; in assay [5], 4.58 µM. Moreover, the GI50 in assay [6] is 6.74 µM; in assay [7] it was 2.2 µM; in assay [8], 3.3 µM. Moreover, the TGI in assay [1] was 8.96 µM; in [2], 9.23 µM; in assay [3], 41 µM; in assay [4] it was 7.96 µM; in [9], 23 µM; in assay [5], > 100 µM. Further, the TGI in assay [6] worked out at 28.4 µM; in assay [7], 7.89 µM; in [8] it was 16.9 µM.
On to `O=C1/C(=C/c2ccc([N+](=O)[O-])s2)Oc2cc(Cl)ccc21`, for which the GI50 was 2.9 µM in assay [2]; 1.02 µM in assay [4]; 3.83 µM in [9]; 0.469 µM in assay [5]; 2.04 µM in assay [6]; 1.2 µM in [7]. Moreover, in assay [8], the GI50 is 0.698 µM. For the same molecule, the TGI in assay [2] is 7.35 µM; in [4] it was 2.21 µM; in [9], > 21.8 µM; in [5], 2.59 µM; in assay [6] it was 11.6 µM; in assay [7], 2.57 µM. The molecule also yielded a TGI in [8] of 2.09 µM.
For the molecule `Cc1cc(Cl)nc2ccc(Cc3ccc4nc(Cl)cc(C)c4c3)cc12`, the TGI in assay [1] was > 100 µM; in assay [2], 30.7 µM; in [3] it was > 100 µM; in assay [4], 79.3 µM; in [9], > 100 µM; in assay [5], > 100 µM. For the same molecule, the TGI in assay [6] is 19.8 µM; in assay [7], > 100 µM; in assay [8], > 100 µM.
Consider `CN1C(=O)CC2(C)c3cc(O)cc(Br)c3N(C)C12` (stereo not given), for which the TGI in assay [1], in assay [2], in assay [3], in [4], in assay [9] and in [10] was > 100 µM throughout. Besides, the TGI in assay [5], in [6] and in assay [7] was > 100 µM throughout.
With `CCc1ccccc1NC(=O)C(=O)C(C#N)c1ccccc1Cl` (stereo not given), the TGI in assay [1], in assay [2], in assay [3], in [4], in assay [9] and in assay [10] was > 100 µM in each case. Further, the TGI in assay [5], in [6] and in assay [7] was > 100 µM each time.
Turning to `N#CCCN(CCC#N)c1ccc(/C=C(/NC(=O)c2cc([N+](=O)[O-])ccc2Cl)C(=O)NN)cc1`, the TGI in [1], in assay [2], in assay [3], in assay [4], in [9] and in [10] was > 100 µM each time. Also, the TGI in assay [5], in assay [6] and in assay [7] was > 100 µM in each case.
Consider `N#CC1C[C@@H]2CC3(CCC2CN1C(=O)c1ccccc1)OCCO3` (stereo not given in full), for which the TGI in [1], in [2], in assay [3], in assay [4], in [9] and in assay [10] was > 100 µM each time. Further, the TGI in assay [5], in assay [6] and in [7] was > 100 µM each time. Also, the GI50 in [9] is > 100 µM.
Take `COc1cccc(C=O)c1C(=O)c1cc(O)ccc1O`: the TGI in assay [1] is 39.2 µM; in [2] it was > 100 µM; in [3], 46.3 µM; in assay [4], > 100 µM; in assay [9], > 100 µM; in [10], > 100 µM. Moreover, the TGI was 46.5 µM in assay [5], > 100 µM in assay [6] and > 100 µM in assay [7].
As to `Cc1ccc(C)c2c1C(=O)N(c1ccc(F)cc1F)C2=O`, the GI50 in assay [1] is > 100 µM; in assay [2], > 100 µM; in [3] it was > 100 µM; in [4], 89.3 µM; in [9], > 100 µM; in assay [5] it was > 100 µM. For the same molecule, the GI50 in assay [6] and in assay [8] was > 100 µM throughout. Moreover, the TGI in assay [1], in assay [2], in assay [3], in assay [4], in assay [9] and in assay [5] was > 100 µM in each case. Moreover, the TGI in assay [6] and in [8] was > 100 µM each time.
On to `COC(=O)[C@H]1COC(=S)N1C(=O)[C@@H](C)[C@H](O)C(C)C`, for which the TGI in assay [1], in [2], in assay [3], in assay [4], in assay [9] and in [10] was > 100 µM throughout. For the same molecule, the TGI in assay [5], in [6] and in assay [7] was > 100 µM each time.
`CC(=O)c1ccccc1NC(=O)C(=O)C(C(=O)c1ccc2ccccc2c1)C1OC(=O)c2ccccc21` (stereo not given): the TGI worked out at 29.6 µM in [1]; 20.9 µM in [2]; 61.8 µM in assay [3]; 40.7 µM in assay [4]; 7.86 µM in [9]; 18.3 µM in assay [10]. The TGI was 94.8 µM in [5], 25.6 µM in [6] and 24.4 µM in [7].
On to `CCc1ccccc1NC(=O)C(C#N)C1=C(Cl)C(=O)c2ccccc2C1=O` (stereo not given), for which the TGI turned out to be 28.8 µM in assay [1]; 31.4 µM in assay [2]; 31.8 µM in [3]; 29.8 µM in [4]; 30.4 µM in assay [9]; 37 µM in assay [5]. Further, the values for the TGI in [6], in assay [7] and in assay [8] were 35.4 µM, 29.6 µM and 71.7 µM, respectively.
As for `COc1ccc(/C=C/C(=O)c2c(O)ccc3c(C)c(C(=O)O)oc23)cc1`, the GI50 in [1] is 49.2 µM; in assay [2], 90.3 µM; in assay [3], 84.9 µM; in [4], 33.2 µM; in [9], 45.1 µM; in assay [10] it was 36.7 µM. Moreover, the GI50 was 61.3 µM in assay [5], 46.4 µM in assay [7] and 73.7 µM in assay [8]. For the same molecule, the TGI in assay [1], in [2], in assay [3], in assay [4], in assay [9] and in assay [10] was > 100 µM throughout. Moreover, the TGI in assay [5], in assay [7] and in assay [8] was > 100 µM throughout.
As for `O=C(CN1CCN(Cc2ccccc2Cl)CC1)NC1CC(=O)c2c(Br)sc(Br)c21` (stereo not given), the GI50 in assay [1] was 17.3 µM; in assay [2], 19.4 µM; in [3], 22.3 µM; in assay [4], 19.7 µM; in assay [9], 23.9 µM; in [10], 19.8 µM. The GI50 in assay [5] is 24.8 µM; in [7] it was 20.3 µM; in assay [8], 19.4 µM. In addition, the TGI in assay [1] stood at 32.9 µM; in assay [2], 40.4 µM; in assay [3], 44 µM; in assay [4], 35.3 µM; in assay [9] it was 91.8 µM; in assay [10], 35.1 µM. For the same molecule, the TGI in assay [5] was 54.8 µM; in assay [7] it was 38.7 µM; in assay [8], 35.7 µM.
On to `CN(C)C1CCN(Cc2ccc(NC(=O)c3cncc(C#Cc4cnc(N)c5ncccc45)c3)cc2C(F)(F)F)CC1`, for which the GI50 in assay [1] is 8.28 µM; in assay [2] it was 1.01 µM; in assay [3], 1.43 µM; in assay [4] it was 1.03 µM; in assay [10], 9.21 µM; in [5], 9.11 µM. The GI50 in [6] is 5.39 µM; in [7], 5.51 µM; in assay [8], 7.77 µM. For the same molecule, the TGI in assay [1] came to 18 µM; in assay [2] it was 1.93 µM; in assay [3], 3.97 µM; in assay [4], 2.22 µM; in assay [10], 20.2 µM; in assay [5], 29 µM. The TGI in [6] turned out to be 11.5 µM; in assay [7] it was 12.9 µM; in assay [8], 15.3 µM.
Consider `Cc1cc(=O)[nH]c(CNC(=O)c2ccc3ccccc3c2)n1`, for which the TGI in [1], in assay [2], in [3], in assay [4], in assay [9] and in assay [10] was > 100 µM in each case. Further, the TGI in assay [5], in assay [6] and in assay [7] was > 100 µM throughout.

The values are drawn from PubChem BioAssay (NCI).
